Measured values reported in the METLIN SMRT retention time set (Domingo-Almenara et al. 2019).

assay: gradient 5% acetonitrile 3 min, to 50% in 2 min, to 85% in 15 min, held 3 min, 100 µL/min; settings: column: Zorbax Extend-C18 2.1 x 50 mm; eluents: water / acetonitrile, 0.1% formic acid
In short: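 Standards, all pure, were combined into mixtures of ~100 molecules and run at 100 μL/min on a Zorbax Extend-C18 column (2.1 × 50 mm, 1.8 μm) with water and acetonitrile, each containing 0.1% formic acid. A coupled quadrupole time-of-flight mass spectrometer operated in positive and negative ionization mode. Retention time values come from computationally picked adduct peaks, each inspected manually.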

SMILES | RP-LC retention time [s]
O=c1n(Cc2cccc(F)c2)nc2ccc(S(=O)(=O)N3CCCC3)cn12 | 856
Cc1nc(-c2csc(S(=O)(=O)N3CCC(C(=O)NCc4ccccc4)CC3)c2)no1 | 844
Cc1csc(-c2cc(S(=O)(=O)NCc3ccc(OC(C)C)cc3)c(C)s2)n1 | 1060
O=C(C1CCN(c2ncnc3c2sc2ncccc23)CC1)N1CCN(c2ccccn2)CC1 | 586
Cc1cc(C2CCCN2C(=O)Nc2ccccc2Cl)no1 (stereo not given) | 802
CCc1ccc(-c2cc3c(=O)n(Cc4noc(CN5CCCCC5C)n4)ccn3n2)cc1 (stereo not given) | 761
Cc1ccc(C)c(S(=O)(=O)N2CCC3(CCC(CN4CCN(C)CC4)O3)CC2)c1 (stereo not given) | 638
O=C(CN1CCN(Cc2ccccc2F)C1=O)NC1CCN(Cc2ccccc2)CC1 | 610
O=C(COc1ccc(Cl)cc1)Nc1nc(-c2ccccc2)cs1 | 1100
O=C(C1CCN(S(=O)(=O)c2ccc3[nH]c(=O)ccc3c2)CC1)N1CCN(c2ccccc2F)CC1 | 754
Cc1ccc(CNC(=O)c2cc3c(n(-c4ccc(C(F)(F)F)cc4)c2=O)CCCC3=O)o1 | 634
NS(=O)(=O)c1ccc(NC(=O)c2csc3c2CCCC3)cc1 | 769
Cc1ccc(NC(=O)Cn2nc3c(N4CCN(c5ccccc5C)CC4)nccn3c2=O)cc1F | 1110
CCCn1c(C)cnc1C1CN(S(=O)(=O)c2ccc(Cl)cc2)C1 | 678
O=C(C1CCN(c2cncnc2N2CCCC2)CC1)N1CCCCC1 | 613
Cn1nc(C(=O)N2CCC(C(=O)NC3CCCCCC3)CC2)c2c1CCN(C(=O)c1ccccc1)C2 | 742
CCOC(=O)C1CCCN(C(=O)C2c3cc(OC)c(OC)cc3C(=O)N(C)C2c2cccs2)C1 (stereo not given) | 787
NCCc1ccc(S(=O)(=O)F)cc1 | 653
CCc1noc(NC(C)=O)c1-c1ccc(C)c(S(=O)(=O)NCc2cccc(OC)c2)c1 | 807

SMILES | RP-LC retention time [s]
CC1=C(c2cccc(Cl)c2)S(=O)(=O)N=C1N1CCCN(C(=O)c2cccs2)CC1 | 860
Cc1cc(C(=O)NC2CC2)c2cc(Cl)ccc2n1 | 669
COc1ccc(-c2nnc(-c3cccc(S(=O)(=O)N4CCC(C)CC4)c3)o2)cc1OC | 1050
Cc1noc(C)c1Cc1ccc(C(=O)NCC23CCC=C2N(C)C(=O)CC3)o1 (stereo not given) | 727
Cc1ccc(NC(=O)Cn2c(-c3cnccn3)nc(C)c(C)c2=O)cc1C | 774
O=C(Nc1ccc(F)cc1)N1CCCC1c1nc(-c2ccccc2)no1 (stereo not given) | 947
Clc1cccc(-c2nc(-c3ccc4nncn4c3)no2)c1 | 921
C=CCN1CCN(c2nc3cc(C(=O)OC)ccc3c(=O)n2-c2ccc(OC)c(OC)c2)CC1 | 631
N#Cc1cccc(CN2CCC(c3nncn3-c3ccccc3)CC2)c1 | 584
CC(=O)Nc1ccc(C2(C(=O)NCc3ccc4c(c3)OCO4)CCC2)cc1 | 730
Cc1ccc(-c2nc3cnccn3c2Nc2ccc3c(c2)OCCO3)cc1 | 841
Cc1cn(C)nc1C(=O)N(CCN1CCOCC1)c1nc2c(C)ccc(C)c2s1 | 648
Cc1cc(Nc2ccc(F)cc2)nc2nn(Cc3cc(=O)n4ccccc4n3)c(=O)n12 | 836
Cc1ncc2c(n1)C[C@@H]1CC[C@H]2N1C(=O)Nc1ccc2c(c1)OCCO2 | 630
Cc1ccc2c(c1)C1CC(C)(O2)N(c2cccc(C(=O)NCc3ccco3)c2)C(=O)N1 (stereo not given) | 801
CN(C)[C@@H]1CN(C(=O)c2ccc(F)cc2Cl)C[C@H]1CO | 553
CCc1cc(=O)n(CC(=O)Nc2ccccc2CC)c(N)n1 | 610
COC1C(=O)N(CC2CC2)C12CCN(C(=O)C1CCOCC1)CC2 (stereo not given) | 638

Now from value to compound:

RP-LC retention time [s] | SMILES
669 | CC(=O)Nc1ccc(CCc2nc3ccc(C(=O)NCCC4=CCCCC4)cc3[nH]2)cc1
604 | COc1ccc(NC(=O)NCCn2c(C)nc3ccccc32)c(OC)c1
700 | Cc1oc(-c2[nH]ncc2C(=O)N2CCCC2)cc1S(=O)(=O)NCc1ccccc1
1150 | COc1ccc(C2(c3nc(-c4cccc(-c5ccnn5C)c4)no3)CC2)cc1
912 | CCOC(=O)c1sc(NC(=O)CN2C(=O)c3ccccc3C2=O)c(SC#N)c1C
752 | COc1ccc(C(=O)Nc2ccc3c(c2)Sc2ncccc2C(=O)N3C)cc1
661 | CCC(CC)NC(=O)C1Cn2cccc2C(=O)N1C (stereo not given)
1290 | CCn1cc(C(=O)Nc2ccc(Br)cc2F)c(=O)c2ccc(C)nc21
598 | CC(C)(Oc1ccc(Cl)cc1)C(=O)N1CCN(CCn2cccn2)CC1
680 | COc1ccc(-c2noc(C(C)NC(C)=O)n2)cc1 (stereo not given)
593 | Cc1cn(C)c(CC(=O)NCCCN2CCCCCC2)c1C(=O)O
656 | CC1(C(=O)NCCc2c[nH]c3ccccc23)CCCCC(=O)N1 (stereo not given)
861 | Cc1ccc(NS(=O)(=O)c2cc3c(s2)CCN(C(=O)C2CC2)C3)cc1C
966 | O=C1CCc2cc(S(=O)(=O)N3CCN(c4ccc(F)cc4)CC3)cc3c2N1CCC3
836 | O=C(NC1CCCC1)C1CCN(S(=O)(=O)c2cc(C(=O)N3CCCCCC3)cs2)CC1
738 | CCc1noc(NC(C)=O)c1-c1ccc(C)c(S(=O)(=O)NC(C)C)c1
1020 | O=C(NC1CCCC1)C(=O)c1cccn1Cc1ccc(F)cc1
713 | Cc1cc(NC(=O)c2ccccc2C(F)(F)F)sn1
603 | COc1ccc(S(=O)(=O)N2CCOC2CNC(=O)C(=O)NCc2ccccn2)cc1C (stereo not given)
718 | O=C(NC1CCN(c2cc(-c3cccs3)[nH]n2)C1)c1ccc(F)cc1F (stereo not given)
823 | Cc1ccc(C2Cn3cnc(C(=O)N4CCC(C(=O)NCc5ccccc5Cl)CC4)c3CO2)cc1 (stereo not given)
715 | COC(=O)c1ncn2c1C(=O)N(Cc1ccccc1)C(C)(C(=O)NCc1ccccc1)C2 (stereo not given)
715 | CCN1C(=O)CCc2cc(NC(=O)c3ccsc3)ccc21
893 | CCOc1ccc(NC(=O)c2oc3cc(C)c(Cl)cc3c2C)c2cccnc12
647 | Nc1nnc(-c2ccc(Br)cc2)o1
791 | O=C(Nc1ccc(F)cc1)C1CCN(C(=O)c2ncn3c2COC(c2ccccc2)C3)CC1 (stereo not given)
1340 | Cc1ccc(-c2noc(C3CCCN3S(=O)(=O)c3cc(C)c(C)cc3C)n2)cc1 (stereo not given)

RP-LC retention time [s] | SMILES
720 | O=C(CN1CCC(c2nc(-c3ccc(F)cc3)no2)CC1)Nc1ccc2c(c1)OCO2
986 | CCN1C(=O)c2cc(S(=O)(=O)Nc3ccc(C)c(C)c3)ccc2Oc2cccnc21
764 | O=C(Nc1nnc(-c2cccs2)o1)c1cc(Cl)ccc1Cl
712 | Oc1ccc(-c2ccc(F)cc2)cc1CNC1CCCCC1
948 | CC(=O)c1ccc(NC(=O)c2cnn(-c3ccc(Br)cc3)c2)cc1
586 | CCNC(=O)N1CCC(OC(C)=O)CC1
825 | Cc1ccc(S(=O)(=O)n2c(N)nc3ccccc32)cc1
789 | O=C(CN(c1ccc(F)cc1)S(=O)(=O)c1cccnc1)NCCc1ccccc1
720 | CCCS(=O)(=O)N1CCCC(c2nc(C(C)C)no2)CCNC(=O)CC1 (stereo not given)
664 | O=C(c1cnn(-c2cccc(F)c2)c1-n1cccc1)N1CCN(c2ccccn2)CC1
741 | O=C1COc2ccc(-c3csc(NC(=O)c4ccco4)n3)cc2N1
653 | CCCn1c(C2CCN(C(=O)Nc3ccc(C)cc3)CC2)cc(=O)n2nccc12
753 | Cc1nc2cc(NS(=O)(=O)c3cccc4cccnc34)ccc2s1
648 | O=C1COc2cccnc2N1
811 | Cc1sc(NC(=O)C2CC2)nc1-c1ccc2c(c1)N(C)C(=O)CO2
751 | Cc1ccc(Oc2cccc(C(=O)Nc3ccc(-c4csc(C)n4)cc3)c2)nn1
1280 | CCOc1cccc(-c2noc(Cn3ncn4nc(-c5cc(C)ccc5C)cc4c3=O)n2)c1
882 | O=C(Nc1ccc2c(c1)OCCO2)N1CCCC1c1nc(-c2ccc(F)cc2F)no1 (stereo not given)
918 | CCc1ccc(NC(=O)CN2C(=O)CCCc3cc(S(=O)(=O)N4CCCC4)ccc32)cc1
690 | CC(=O)N1CCCN(C2=NS(=O)(=O)C(c3ccc(F)cc3)=C2C)CC1
726 | CCCCN(CCNc1ncnc2onc(-c3ccccc3OC)c12)Cc1ccco1
962 | CC1(C(=O)NCc2ccccc2)CCCN(C(=O)Nc2ccc(Cl)cc2)C1 (stereo not given)
983 | Cc1ccc(-c2cn3c4c(=O)n(C)c(=O)n(C)c4nc3n2Cc2ccc(F)cc2)cc1
868 | Cc1nc(-c2csc(S(=O)(=O)N3CCC(C(=O)NCCC(C)C)CC3)c2)no1
729 | CCn1cc(S(=O)(=O)N2CCC3(CC2)CN(Cc2ccc(OC)cc2)C3=O)cn1
636 | Cc1cc(CNC(=O)NC(C)(C)C)on1
